{
  "source": "patent US20070167377A1",
  "about": "“Inhibitors of glycinamide ribonucleotide transformylase” (priority 2002, published 2007)",
  "key": {"[1]": {"tested_on": "CCRF-CEM/FPGS^− cell line", "assay": "Cytotoxic assay, FPGS deficient mutant", "type": "cell-based, human", "details": "lacks folylpolyglutamate synthase", "description": "(§1) The cytotoxic activity of the compounds was measured using CCRF-CEM human leukemia cells, as described previously (Boger, D. L., et al., Bioorg. Med. Chem. 1997, 5, 1847-1852). Two mutant cell lines, CCRF-CEM/MTX and CCRF-CEM/FPGS^− were used to determine the dependence on the reduced folate active transport system and folylpolyglutamate synthetase (FPGS), respectively (Jansen, G., et al., Cancer Res. 1989, 49, 2455-2459)."}, "[2]": {"assay": "Chemical stability", "type": "physicochemical"}, "[3]": {"tested_on": "CCRF-CEM/MTX cell line", "assay": "Cytotoxic assay, reduced folate carrier deficient mutant", "type": "cell-based, human", "details": "impaired reduced folate carrier", "description": "as §1"}, "[4]": {"assay": "Solubility", "type": "physicochemical", "details": "pH 7-8"}, "[5]": {"target": "E. coli GAR Tfase (Escherichia coli, UniProt P08179)", "assay": "E. coli GAR Tfase inhibition", "type": "biochemical", "details": "E. coli GAR Tfase", "description": "(§2) GAR and AICAR Tfase inhibition studies were conducted as previously detailed^28 with the exception that the AICAR Tfase inhibition was conducted in the absence of 5 mM β-mercaptoethanol and screened with 10 nM enzyme, […] inhibitor and […] of cofactor. The DHFR inhibition study was conducted as previously detailed with 10 nM enzyme, […] H2F, […] NADPH and […] inhibitor.\nThe Ki values for the folate analogues were measured as previously described (Boger, D. L., et al., Bioorg. Med. Chem. 1997, 5, 1817-1830). Briefly, each compound was dissolved in dimethyl sulfoxide (DMSO) and then diluted in assay buffer. […] Thus, all assays were conducted by mixing 10 μM 10-formyl-5,8-dideazafolate (fDDF), 20 μM inhibitor in total volume of 1 mL buffer (0.1 M HEPES, pH 7.5) at 26° C., and the reaction initiated by the addition of 76 nM E. coli or human GAR Tfase. The assay monitors the deformylation of fDDF (Δε=18.9 mM^−1 cm^−1 at 295 nm) resulting from the transfer of the formyl group to β-GAR."}, "[6]": {"target": "human AICAR Tfase (Homo sapiens, UniProt P31939)", "assay": "AICAR Tfase inhibition", "type": "biochemical", "description": "as §2"}, "[7]": {"tested_on": "CCRF-CEM cell line", "assay": "CCRF-CEM cytotoxic assay", "type": "cell-based, human", "details": "Homo sapiens", "description": "as §1"}, "[8]": {"target": "DHFR (Escherichia coli, UniProt P0ABQ4)", "assay": "DHFR inhibition (101, 102)", "type": "biochemical"}, "[9]": {"target": "thymidylate synthetase (TS) (Homo sapiens, UniProt P04818)", "assay": "Thymidylate synthetase inhibition", "type": "biochemical"}},
  "note": "Entries after “also recorded” stand apart in the source; their conditions may differ.",
  "data": [
    {"smiles": "Nc1nc(N)c(CCCC(C(=O)C(F)(F)F)c2ccc(C(=O)N[C@@H](CCC(=O)O)C(=O)O)cc2)c(=O)[nH]1", "note": "(stereo partly drawn) [Compound 101, N-{4-[4-(2,4-Diamino-6-oxo-1,6-dihydropyrimidin-5-yl)-1-(2,2,2-trifluoroacetyl)butyl]benzoyl}-L-glutamic acid]", "values": [
      {"measurement": "cytotoxic activity (in words)", "setting": "[1]", "value": "lacked or lost activity"},
      {"measurement": "chemical stability (in words)", "setting": "[2]", "value": "chemically stable"},
      {"measurement": "stability at pH 7-8", "setting": "[2]; pH 7-8 buffers in the presence of air, 7 days", "value": "excellent; also recorded: no decomposition or reaction"},
      {"measurement": "cytotoxic activity (in words)", "setting": "[3]", "value": "lost activity"},
      {"measurement": "solubility", "setting": "[4]", "value": "excellent"},
      {"measurement": "Ki", "setting": "[5]", "value": 1.9, "unit": "µM"},
      {"measurement": "inhibition of AICAR Tfase (in words)", "setting": "[6]", "value": "inactivity; also recorded: inactive"},
      {"measurement": "Ki", "setting": "[6]; AICAR Tfase", "value": "> 100", "unit": "µM"},
      {"measurement": "IC50", "setting": "[7]; in the presence of media purines", "value": "> 100", "unit": "µM"},
      {"measurement": "IC50", "setting": "[7]; purines (hypoxanthine) absent in the media", "value": 0.016, "unit": "µM"},
      {"measurement": "inhibition of DHFR (in words)", "setting": "[8]", "value": "inactive"},
      {"measurement": "Ki", "setting": "[8]; DHFR", "value": "> 100", "unit": "µM"},
      {"measurement": "inhibition of TS (in words)", "setting": "[9]", "value": "inactive"},
      {"measurement": "Ki", "setting": "[9]; TS", "value": "> 100", "unit": "µM"}
    ]}
  ]
}
